{"source": "patent US20180030091A1", "about": "“COLLAGEN-BINDING SYNTHETIC PEPTIDOGLYCANS FOR USE IN VASCULAR INTERVENTION” (Purdue Research Foundation, priority 2010, published 2018)", "key": {"[1]": {"molecular_target": "T1, collagen (Bos taurus, UniProt P02453+P02465)", "T1 construct": "purchased Inamed, Freemont, Calif; (Nutragen)", "T1 sequence (P02453 162-1217 limits assumed)": "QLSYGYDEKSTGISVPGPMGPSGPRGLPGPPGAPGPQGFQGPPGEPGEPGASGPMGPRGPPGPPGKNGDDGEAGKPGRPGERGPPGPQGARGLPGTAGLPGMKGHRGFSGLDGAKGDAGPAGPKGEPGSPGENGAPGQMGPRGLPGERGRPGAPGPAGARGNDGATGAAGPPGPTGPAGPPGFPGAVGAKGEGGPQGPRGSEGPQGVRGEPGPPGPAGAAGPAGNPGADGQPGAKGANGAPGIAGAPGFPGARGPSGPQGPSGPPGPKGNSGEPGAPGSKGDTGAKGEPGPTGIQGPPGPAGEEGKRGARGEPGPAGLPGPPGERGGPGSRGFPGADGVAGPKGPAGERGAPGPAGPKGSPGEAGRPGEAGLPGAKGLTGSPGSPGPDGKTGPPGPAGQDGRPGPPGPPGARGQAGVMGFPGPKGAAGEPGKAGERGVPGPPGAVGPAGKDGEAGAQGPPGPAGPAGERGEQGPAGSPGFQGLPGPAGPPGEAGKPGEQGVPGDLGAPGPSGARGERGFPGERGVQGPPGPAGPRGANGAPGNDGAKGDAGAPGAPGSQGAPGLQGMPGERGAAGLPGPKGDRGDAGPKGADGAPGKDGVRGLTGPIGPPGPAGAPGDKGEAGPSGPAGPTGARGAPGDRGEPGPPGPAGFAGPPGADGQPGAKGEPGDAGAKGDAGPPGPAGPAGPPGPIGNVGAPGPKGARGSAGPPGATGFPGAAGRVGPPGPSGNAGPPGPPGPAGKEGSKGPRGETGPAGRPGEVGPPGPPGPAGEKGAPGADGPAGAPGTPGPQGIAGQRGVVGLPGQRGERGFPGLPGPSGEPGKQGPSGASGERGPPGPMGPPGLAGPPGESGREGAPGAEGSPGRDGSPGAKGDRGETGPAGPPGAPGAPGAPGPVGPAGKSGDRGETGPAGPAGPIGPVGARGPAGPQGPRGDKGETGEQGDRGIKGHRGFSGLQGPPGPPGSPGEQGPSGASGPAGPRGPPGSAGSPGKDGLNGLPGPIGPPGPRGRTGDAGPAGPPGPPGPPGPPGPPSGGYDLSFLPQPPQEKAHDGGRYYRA", "T1 sequence (P02465 80-1117 limits assumed)": "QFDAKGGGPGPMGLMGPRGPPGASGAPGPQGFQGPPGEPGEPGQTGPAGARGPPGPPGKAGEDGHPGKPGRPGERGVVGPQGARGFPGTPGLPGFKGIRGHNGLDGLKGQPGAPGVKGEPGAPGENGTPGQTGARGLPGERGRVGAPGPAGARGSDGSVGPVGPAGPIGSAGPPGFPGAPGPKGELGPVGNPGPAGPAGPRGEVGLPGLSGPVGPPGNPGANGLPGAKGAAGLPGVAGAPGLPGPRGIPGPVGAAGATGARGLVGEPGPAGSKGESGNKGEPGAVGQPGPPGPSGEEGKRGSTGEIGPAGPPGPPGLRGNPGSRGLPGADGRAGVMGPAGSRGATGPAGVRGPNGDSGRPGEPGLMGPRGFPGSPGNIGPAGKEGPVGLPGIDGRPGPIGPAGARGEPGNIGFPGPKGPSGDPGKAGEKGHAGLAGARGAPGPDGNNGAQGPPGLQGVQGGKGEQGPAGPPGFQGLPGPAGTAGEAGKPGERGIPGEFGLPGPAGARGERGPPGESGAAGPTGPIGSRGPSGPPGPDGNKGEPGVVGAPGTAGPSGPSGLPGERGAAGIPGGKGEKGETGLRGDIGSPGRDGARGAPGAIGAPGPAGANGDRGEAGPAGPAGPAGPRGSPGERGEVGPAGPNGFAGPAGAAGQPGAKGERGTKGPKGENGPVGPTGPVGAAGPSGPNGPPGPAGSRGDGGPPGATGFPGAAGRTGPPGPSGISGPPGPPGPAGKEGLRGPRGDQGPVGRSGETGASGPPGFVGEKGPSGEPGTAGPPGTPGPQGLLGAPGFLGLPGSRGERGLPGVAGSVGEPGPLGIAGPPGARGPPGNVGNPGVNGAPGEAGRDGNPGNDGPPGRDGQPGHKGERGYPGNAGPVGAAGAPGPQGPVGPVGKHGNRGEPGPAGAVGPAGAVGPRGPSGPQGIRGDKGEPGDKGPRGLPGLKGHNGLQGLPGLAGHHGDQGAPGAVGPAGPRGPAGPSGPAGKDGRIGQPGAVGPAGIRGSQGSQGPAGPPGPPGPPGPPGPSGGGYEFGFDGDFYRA", "experiment": "Collagen fibrillogenesis by turbidity at 313 nm", "assay_type": "biochemical", "conditions": "4 mg/mL collagen, 10:1 collagen:treatment unless otherwise indicated", "protocol": "Collagen fibrillogenesis was monitored by measuring turbidity related absorbance at 313 nm providing information on rate of fibrillogenesis and fibril diameter. Gel solutions were prepared as described in EXAMPLE 15 (4 mg/mL collagen, 10:1 collagen:treatment, unless otherwise indicated) and 50 uL/well were added at 4° C. to a 384-well plate. The plate was kept at 4° C. for 4 hours before initiating fibril formation. A SpectraMax M5 at 37° C. was used to measure absorbance at 313 nm at 30 s intervals for 6 hours.\nA fibrillogenesis assay as described for DS-SILY, EXAMPLE 17, performed with the conjugate DS-Dc13."}, "[2]": {"system": "HCA SMCs", "experiment": "Elastin measurement by Fastin assay", "assay_type": "cell-based, Human", "conditions": "gels cultured for 10 days", "protocol": "Collagen gels seeded with HCA SMCs were prepared as described in EXAMPLE 25. Differentiation medium was changed every three days and gels were cultured for 10 days. Collagen gels containing no cells were used as a control. Gels were rinsed in 1×PBS overnight to remove serum protein, and gels were tested for elastin content using the Fastin elastin assay per manufacturers protocol (Biocolor, County […].). Briefly, gels were solubilized in 0.25 M oxalic acid by incubating at 100° C. for 1 hr. Elastin was precipitated and samples were then centrifuged at 11,000×g for 10 min. The solubilized collagen supernatant was removed and the elastin pellet was stained by Fastin Dye Reagent for 90 min at room temperature. Samples were centrifuged at 11,000×g for 10 min and unbound dye in the supernatant was removed. Dye from the elastin pellets was released by the Fastin Dye Dissociation Reagent, and 100 μL samples were transferred to a 96-well plate (Costar). Absorbance was measured at 513 nm, and elastin content was calculated from an α-elastin standard curve."}, "[3]": {"molecular_target": "T1, collagen", "experiment": "Cryo-SEM measurement of fibril density", "conditions": "10:1 molar ratio, cryo-SEM 10,000×", "protocol": "Collagen gels were formed in the presence of each additive at a 10:1 molar ratio, as described in EXAMPLE 15, directly on the SEM stage, processed, and imaged as described. Images at 10,000× were analyzed for fibril density calculations. Images were converted to 8-bit black and white, and threshold values for each image were determined using ImageJ software (NIH). The threshold was defined as the value where all visible fibrils are white, and all void space is black. The ratio of white to black area was calculated using MatLab software. All measurements were taken in triplicate and thresholds were determined by an observer blinded to the treatment."}, "[4]": {"system": "Human platelets on Type I fibrillar collagen", "experiment": "Inhibition of platelet activation on fibrillar collagen after 24 hour rinse (PF4, NAP2)", "assay_type": "cell-based", "conditions": "50 μM, incubated 15 min, rinsed for 24 hours", "protocol": "Type I fibrillar collagen from Chronolog was diluted in isotonic glucose to a concentration of 50 μg/mL. 50 μL of collagen solution was added to each well of a high bind 96-well plate. The plate was incubated overnight at 4° C., and then rinsed 3× with 1×PBS. For microplate assays, peptidoglycan was diluted in 1×PBS at concentrations between 0.0001 μM to 100 μM and 50 μL solution was added to the collagen coated wells. DS, peptide, or 1×PBS were also added to collagen coated wells as controls. Treatments were incubated at 37° C. with shaking at 200 rpm for 15 min. Wells were then rinsed of unbound treatment by removing the treatment solution, adding PBS, and shaking the wells for 24 hours. During the 24 hours, PBS solution was changed 3 times.\nHuman whole blood was collected from healthy volunteers by venipuncture. The first 5 mL of blood was discarded and approximately 20 mL was then collected into citrated glass vacutainers (BD Bioscience). Blood was centrifuged in the glass tube for 20 min at 200 g at 25° C. The top layer of the centrifuged blood, the platelet rich plasma (PRP), was used for platelet experiments.\nPRP (50 μL/well) was added to the microplate for 1 hour at room temperature without shaking. After 1 hour of incubation, 45 μL of PRP was removed from each well and added to a microcentrifuge tube containing […] ETP (107 mM EDTA, 12 mM theophylline, and 2.8 mM prostaglandin E1) to inhibit further platelet activation. These tubes were spun at 4° C. for 30 min at 2000 g to pellet the platelets. The supernatant (platelet serum) was collected for ELISA studies to test for the presence of platelet activation markers PF-4 and NAP2. Sandwich ELISAs were utilized in order to detect each protein. The components for both sandwich ELISAs were purchased from R&D Systems and the provided protocols were followed. Platelet serum was diluted 10,000 times in 1% BSA in 1×PBS for values to fall within a linear range.\nPlatelet activation was measured through release of platelet factor 4 (PF4) and β-thromboglobulin (NAP2). […] Since the high SILY/DS ratio is expected to provide higher binding affinity to the collagen surface due to multiple interactions, peptidoglycans with the higher SILY/DS ratios were prepared.\nThe number of peptides per DS molecule was further increased to 18 to create the peptidoglycan DS-SILY18, and the concentration of molecule needed to inhibit platelet activation was tested. […] Within solubility limits, the number of peptides can be increased to achieve maximal platelet inhibition as well as to reduce diffusion over time, where a higher level of peptidoglycans on the denuded vessel wall is sustained."}, "[5]": {"system": "Human platelet-rich plasma on fibrillar collagen", "experiment": "Platelet binding to collagen under flow", "assay_type": "cell-based", "conditions": "50 μM for 15 min; 2 mL/hr for 1 hour, shear rate 355 s^−1", "protocol": "To mimic physiologic conditions with flowing blood, platelet binding to collagen surfaces under flow conditions was evaluated. Flow kits were obtained from Ibidi (Munchen, Germany). Each channel was coated with fibrillar collagen (Chronolog). Excess collagen was removed from the flow channel by pushing 1×PBS through the channel with a syringe. DS-SILY18 was incubated in the channel at a concentration of 50 μM for 15 min at 37° C., and unbound peptidoglycan was rinsed by pushing 1×PBS through the channel with a syringe. The control channel consisted of collagen not treated with peptidoglycan.\nPlatelet rich plasma was pushed through the channels at 2 mL/hr for 1 hour, corresponding to a shear stress of 3.55 dynes/cm^2 and a shear rate of 355 s^−1. Unbound platelets were rinsed from the channel by pushing through 1×PBS. Adhered platelets were fixed in the channel with 10% formaldehyde. Platelets were permeabilized and actin filaments were stained with phalloidin-Alexa Fluor 488 (Invitrogen)."}, "[6]": {"system": "Human coronary artery smooth muscle cells (HCA SMC)", "experiment": "Gel compaction by smooth muscle cells in collagen gels", "assay_type": "cell-based", "conditions": "Day 7", "protocol": "Human coronary artery smooth muscle cells (HCA SMC) (Cascade Biologics) were cultured in growth medium (Medium 231 supplemented with smooth muscle growth factor). Cells from passage 3 were used for all experiments. Differentiation medium (Medium 231 supplemented with 1% FBS and 1×pen/strep) was used for all experiments unless otherwise noted.\nCollagen gels were prepared with each additive as described with the exception that the 1×PBS sample addition was omitted to accommodate the addition of cells in media. After incubating on ice for 30 min, HCA SMCs in differentiation medium were added to the gel solutions to a final concentration of 1×10^6 cells/mL. Gels were formed in quadruplicate in 48-well non-tissue culture treated plates (Costar) for 6 hrs before adding 500 μL/well differentiation medium. Gels were freed from the well edges after 24 hrs. Medium was changed every 2-3 days and images for compaction were taken at the same time points using a Gel Doc System (Bio-Rad). The cross-sectional area of circular gels correlating to degree of compaction was determined using ImageJ software (NIH). Gels containing no cells were used as a negative control and cells in collagen gels absent additive were used as a positive control. By day 10 all gels had compacted to approximately 10% of the original gel area, and differences between additives were small."}, "[7]": {"molecular_target": "T1, collagen", "experiment": "Viscoelastic characterization of collagen gels containing Dc13 or DS-Dc13", "conditions": "varying ratios of collagen to additive", "protocol": "Collagen gels were prepared, as in EXAMPLE 15. Viscoelastic characterization was performed as described in EXAMPLE 16 on gels formed with varying ratios of collagen to additive (treatment)."}, "[8]": {"molecular_target": "T2, Monomeric collagen (Bos taurus, UniProt P02453+P02465)", "T2 construct": "purchased Advanced Biomatrix 5010", "T2 sequence (P02453 162-1217 limits assumed)": "as the sequence (P02453 162-1217 limits assumed) above", "T2 sequence (P02465 80-1117 limits assumed)": "as the sequence (P02465 80-1117 limits assumed) above", "experiment": "Fluorescence binding of dansyl-labeled DS-peptide conjugates to immobilized collagen", "conditions": "100 μM to 10 nM; 30 min at 37° C.", "protocol": "In order to determine whether the peptide conjugate maintained its ability to bind to collagen after its conjugation to DS, a fluorescent binding assay was performed. A fluorescently labeled version of SILY, Z-SILY, was synthesized by adding dansylglycine to the amine terminus. This peptide was conjugated to DS and purified using the same methods described for SILY.\nBinding assays were done in a 96-well high binding plate, black with a clear bottom (Costar). Collagen was compared to untreated wells and BSA coated wells. Monomeric collagen (Advanced Biomatrix Cat. No. 5010) and BSA were immobilized at 37° C. for 1 hr by incubating 90 μL/well at concentrations of 2 mg/mL in 10 mM HCl and 1×PBS respectively. Each well was washed 3× with 1×PBS after incubating.\nWells were preincubated with DS at 37° C. for 30 min to eliminate nonspecific binding of DS to collagen. Wells were rinsed 3× with 1×PBS before incubating with DS-Z-SILY. […] Fluorescence readings were taken on an M5 Spectramax Spectrophotometer (Molecular Devices) at excitation/emission wavelengths of 335 nm/490 nm, respectively.\nFluorescence binding of DS-Z-SILY on immobilized collagen, BSA, and untreated wells are compared in FIG. 7. […]\nThe fluorescence binding assays described for DS-ZSILY was performed with peptide sequence ZSYIRIADTNITGC (ZDc13) (SEQ ID NO: 30)."}}, "note": "Where no end group is shown, it is not given here. The star is where a group is joined. Dansyl = CN(C)c1cccc2c(S(=O)(=O)*)cccc12", "data": [{"substance": "DS-SILY: dermatan sulfate-RRANAALKAGELYKSILYGC conjugate; SILY/DS ratio 1.06 in Example 2, varied ratios in Example 36 (RRANAALKAGELYKSILYGC-NH2; not fully specified (residue 20); also: dermatan sulfate conjugate, SILY/DS ratio 1.06 or varied)", "values": [{"measurement": "fibrillogenesis (absorbance at 313 nm)", "setting": "[1]", "result": "decreases the rate of fibrillogenesis"}, {"measurement": "elastin production", "setting": "[2]", "result": "significantly increased elastin production over all samples"}, {"measurement": "fibril density (ratio of fibril containing area to void space)", "setting": "[3]", "result": "significantly greater fibril density"}, {"measurement": "inhibition of platelet activation (release of PF4 and NAP2)", "setting": "[4]", "result": "able to inhibit collagen mediated platelet activation"}, {"measurement": "platelets bound to collagen under flow", "setting": "[5]", "result": "significantly fewer bound platelets on the peptidoglycan treated surface"}]}, {"substance": "dermatan sulfate [DS]", "values": [{"measurement": "gel compaction, day 7", "setting": "[6]", "result": "significant compared to collagen"}, {"measurement": "elastin production", "setting": "[2]", "result": "significantly decreased elastin production over untreated collagen"}, {"measurement": "stiffness (storage modulus G′) of collagen gel", "setting": "[7]", "result": "increase the stiffness of the resulting collagen gel over untreated collagen"}, {"measurement": "inhibition of platelet activation (release of PF4 and NAP2)", "setting": "[4]", "result": "little to no effect on inhibiting platelet activation"}]}, {"substance": "DS-Z-SILY: dermatan sulfate conjugated to Z-SILY (Dansyl-GRRANAALKAGELYKSILYGC-NH2; also: dermatan sulfate conjugate)", "values": [{"measurement": "fluorescence binding to collagen versus BSA and untreated wells", "setting": "[8]", "result": "binds specifically to the collagen-treated wells over BSA and untreated wells"}]}]}
